# pIC50: −log10 of the molar value. Marks after values point to notes of the source that are not given here.
# Experiments:
# Rat SGLT1 = biological target: T1, Rat SGLT1 (Rattus norvegicus, UniProt P53790); assay: 14C-AMG uptake in CHOK cells expressing rat SGLT1; assay type: cell-based; details: mean of 2 experiments
# T1 construct: expressed in transfected cells; host or cells: CHO-K (CHOK) cells
# T1 sequence (P53790 1-665): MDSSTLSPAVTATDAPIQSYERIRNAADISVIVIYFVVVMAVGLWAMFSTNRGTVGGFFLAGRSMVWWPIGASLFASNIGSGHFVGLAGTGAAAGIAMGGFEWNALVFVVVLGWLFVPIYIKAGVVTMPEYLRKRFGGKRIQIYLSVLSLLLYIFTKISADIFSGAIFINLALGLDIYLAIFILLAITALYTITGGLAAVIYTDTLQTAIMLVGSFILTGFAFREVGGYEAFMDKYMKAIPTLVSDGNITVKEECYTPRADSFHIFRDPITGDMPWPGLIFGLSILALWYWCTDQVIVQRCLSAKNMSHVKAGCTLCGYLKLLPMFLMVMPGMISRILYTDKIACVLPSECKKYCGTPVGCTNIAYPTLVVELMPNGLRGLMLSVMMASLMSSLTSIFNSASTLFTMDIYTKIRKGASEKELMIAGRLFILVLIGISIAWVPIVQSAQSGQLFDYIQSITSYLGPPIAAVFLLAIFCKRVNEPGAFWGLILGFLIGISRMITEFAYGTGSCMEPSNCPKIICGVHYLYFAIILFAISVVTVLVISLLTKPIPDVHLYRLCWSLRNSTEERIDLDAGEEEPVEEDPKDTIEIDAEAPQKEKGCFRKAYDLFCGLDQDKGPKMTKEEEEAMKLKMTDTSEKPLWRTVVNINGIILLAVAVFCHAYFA
# Protocol: Cells were seeded into 96-well plates.
# All data are presented as mean ± standard error.
# ZDF rats [1] = assay: Graded glucose infusion, renal threshold for glucose excretion in ZDF rats; assay type: in vivo, rat; details: 1 mg/kg
# Excerpt: (§1) Four rodent models were used in these experiments: (1) male C57BL/6J mice fed with a high-fat diet (D-12492 with 60 kcal% fat, Research Diets, Inc, New Jersey, USA) (diet-induced obese, insulin resistantmice [DIO]); (2) male C57BL/ksj-db/db hyperglycemic mice; (3) male Zucker fatty (ZF) obese, insulin resistant rats; and (4) male ZDF obese, hyperglycemic rats. All animals were housed according to standard procedures following a protocol approved by the IACUC in Drug Discovery at Johnson & Johnson Pharmaceutical Research & Development, LLC.
# Two separate graded glucose infusion (GGI) studies were performed to characterize renal glucose handling in both untreated and treated ZDF rats. […] The RTG was determined as described below.
# The relationship between UGE and BG is commonly described as a threshold relationship in which there is little UGE when BG<RTG and UGE increases with filtered glucose load when BG>RTG, where the filtered glucose load is equal to the BG concentration multiplied by the glomerular filtration rate (GFR). […] (1) Values of RTG were determined using nonlinear regression (nlinfit in Matlab version 7.10) with Equation 1 and the measured BG and UGE values.
# db/db mice = assay: Single-dose blood glucose lowering in db/db mice; assay type: in vivo, mouse; details: for reduction of BG levels compared with vehicle-treated mice: 1 hour after treatment; for BG level: 6 hours, vehicle 479±3.9
# Excerpt: as §1
# (§2) BG levels were monitored at 0, 0.5, 1, 3, 6, and 24 hours after dosing. […] BG levels were monitored weekly, and HbA1c, plasma glucose, and insulin levels were determined at the end of the 4-week treatment. An oral glucose tolerance test (OGTT) ([…] of body weight, given by gavage) was conducted in ZDF rats after 4 weeks of treatment. Blood was sampled at 0, 30, 60, and 120 minutes after glucose challenge from the tail vein for measurement of BG levels using a glucometer (One Touch Ultra, LifeScan, Milpitas, California, USA) and plasma insulin using ELISA method (ALPCO, Salem, New Hampshire, USA).
# ZDF rats [2] = assay: 4-week treatment of ZDF rats (glycemic control, OGTT); assay type: in vivo, rat; details: 4 weeks; for OGTT Ratio of insulin AUC/glucose AUC / Insulin / HbA1c / OGTT Plasma insulin (AUC0–120 min) / Fed plasma glucose / OGTT Blood glucose (AUC0–120 min): ZDF rats; for OGTT Ratio of insulin AUC/glucose AUC: vehicle 0.003±0.000; for Insulin: vehicle 5.2±0.4; for HbA1c: vehicle 11.5±0.3; for OGTT Plasma insulin (AUC0–120 min): vehicle 221±13; for Fed plasma glucose: vehicle 598.2±18.0; for OGTT Blood glucose (AUC0–120 min): vehicle 70,704±1289
# Excerpt: as §1, §2
# ZF rats = assay: 3-week treatment of ZF rats (body weight, UGE, calorimetry); assay type: in vivo; details: ZF rat, 3 mg/kg, 3 weeks
# Excerpt: as §1
# Body weight, food intake, and BG levels were monitored weekly. UGE and indirect calorimetry were conducted in the fourth week of treatment during the compound treatment. […] Body weight, food intake, and BG were measured weekly during the 19-day treatment period. UGE, body fat, and indirect calorimetric studies were conducted at the end of this study.
# Rat SGLT2 = Rat SGLT2 (Rattus norvegicus, UniProt P53792); assay: cell-based
# Rat SGLT2, sequence (P53792 whole entry): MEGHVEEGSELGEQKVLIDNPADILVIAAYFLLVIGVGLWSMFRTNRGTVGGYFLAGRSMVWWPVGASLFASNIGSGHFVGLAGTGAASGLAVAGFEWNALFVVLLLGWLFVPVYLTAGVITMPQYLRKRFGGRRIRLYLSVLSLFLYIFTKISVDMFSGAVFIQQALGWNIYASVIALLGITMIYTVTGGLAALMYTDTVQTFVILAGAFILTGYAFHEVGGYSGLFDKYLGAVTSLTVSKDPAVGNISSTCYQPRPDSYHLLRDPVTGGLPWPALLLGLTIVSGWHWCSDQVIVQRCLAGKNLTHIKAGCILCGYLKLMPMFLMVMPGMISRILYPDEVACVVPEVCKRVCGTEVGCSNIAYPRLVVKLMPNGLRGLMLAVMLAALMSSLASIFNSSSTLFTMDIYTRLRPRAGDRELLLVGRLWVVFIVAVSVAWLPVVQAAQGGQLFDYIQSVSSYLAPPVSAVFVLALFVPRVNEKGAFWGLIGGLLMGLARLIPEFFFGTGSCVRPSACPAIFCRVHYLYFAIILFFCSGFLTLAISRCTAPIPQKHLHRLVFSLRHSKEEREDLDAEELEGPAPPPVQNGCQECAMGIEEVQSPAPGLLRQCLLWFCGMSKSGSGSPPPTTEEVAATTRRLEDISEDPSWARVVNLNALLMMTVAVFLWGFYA
smiles,measurement,setting,value
"Cc1ccc([C@@H]2O[C@H](CO)[C@@H](O)[C@H](O)[C@H]2O)cc1Cc1ccc(-c2ccc(F)cc2)s1 [canagliflozin, Canagliflozin]",pIC50,Rat SGLT1,6.24
same,BG at which negligible UGE occurred,ZDF rats [1]; insulin + GGI study,< 90 mg/dL
same,renal threshold for glucose excretion (RTG),ZDF rats [1]; untreated 415±12 mg/dl,94 ± 10 mg/dL
same,reduction of BG levels compared with vehicle-treated mice,db/db mice; single dose 1 mg/kg,22%
same,BG level,db/db mice; single dose 1 mg/kg,208 ± 9.6 mg/dL
same,reduction of BG levels compared with vehicle-treated mice,db/db mice; single dose 10 mg/kg,36%
same,BG level,db/db mice; single dose 10 mg/kg,118 ± 9.0 mg/dL
same,OGTT Ratio of insulin AUC/glucose AUC,ZDF rats [2]; 3 mg/kg,0.013±0.002 ^a (ng/ml•min)/mg/dl•min)
same,Insulin,ZDF rats [2]; 3 mg/kg,7.9±0.1 ^a ng/ml
same,HbA1c,ZDF rats [2]; 3 mg/kg,7.1±0.3 ^a %
same,OGTT Plasma insulin (AUC0–120 min),ZDF rats [2]; 3 mg/kg,342±27 ^a ng/ml•min
same,Fed plasma glucose,ZDF rats [2]; 3 mg/kg,248.0±13.5 ^a mg/dl
same,OGTT Blood glucose (AUC0–120 min),ZDF rats [2]; 3 mg/kg,"27,883±1806 ^a mg/dl•min"
same,OGTT Ratio of insulin AUC/glucose AUC,ZDF rats [2]; 10 mg/kg,0.017±0.002 ^a (ng/ml•min)/mg/dl•min)
same,Insulin,ZDF rats [2]; 10 mg/kg,7.9±0.1 ^a ng/ml
same,HbA1c,ZDF rats [2]; 10 mg/kg,5.6±0.3 ^a %
same,OGTT Plasma insulin (AUC0–120 min),ZDF rats [2]; 10 mg/kg,403±33 ^a ng/ml•min
same,Fed plasma glucose,ZDF rats [2]; 10 mg/kg,182.0±7.1 ^a mg/dl
same,OGTT Blood glucose (AUC0–120 min),ZDF rats [2]; 10 mg/kg,"23,989±1881 ^a mg/dl•min"
same,OGTT Ratio of insulin AUC/glucose AUC,ZDF rats [2]; 30 mg/kg,0.018±0.002 ^a (ng/ml•min)/mg/dl•min)
same,Insulin,ZDF rats [2]; 30 mg/kg,7.8±0.1 ^a ng/ml
same,HbA1c,ZDF rats [2]; 30 mg/kg,5.5±0.3 ^a %
same,OGTT Plasma insulin (AUC0–120 min),ZDF rats [2]; 30 mg/kg,288 ± 34 ng·min/mL
same,Fed plasma glucose,ZDF rats [2]; 30 mg/kg,199.9±14.7 ^a mg/dl
same,OGTT Blood glucose (AUC0–120 min),ZDF rats [2]; 30 mg/kg,"16,549±822 ^a mg/dl•min"
same,"increase in the insulin/glucose ratio following an OGTT, relative to vehicle-treated animals","ZDF rats [2]; ZDF rats, 3, 10 or 30 mg/kg",4-to-6 fold
same,Feeding efficiency index (body weight gain/food intake),ZF rats; vehicle 0.30±0.01,0.25±0.01
same,RER,ZF rats; vehicle 1.10±0.01,1.06±0.01 ^b
same,UGE,ZF rats; vehicle 1.8±1.1,29.10±3.5 ^b mg/4 h
same,Epididymal fat weight,ZF rats; vehicle 10.8±0.3,9.5±0.3 ^b g
same,Liver weight,ZF rats; vehicle 28.5±0.8,25.0±1.4 ^b g
same,Fed BG,ZF rats; vehicle 149.6±22.9,118.9±4.3 ^b mg/dl
same,Body weight,ZF rats; vehicle 437.9±11.5,408.1±7.7 ^b g
same,Total food intake,ZF rats; vehicle 645.3±21.2,647.9 ± 18.9 g
same,Oxygen consumption (VO2),ZF rats; vehicle 1560±28,26.37 ± 0.55 mL/min/kg
same,pIC50,Rat SGLT2,8.43

# Reference: paper PMC3280264 (PLoS ONE, 2012)
